How the values were obtained:
ABUTH [1] = experiment: Pre-emergence herbicidal action against ABUTH; format: in vivo, Abutilon theophrasti
Procedure, shortened: (§1)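 Seeds sown in sandy loam, soil-covered; compound sprayed on soil surface pre-emergence. Application: WP/EC, 600–800 l/ha, 0.2% wetting agent. Readout: visual % damage at 3 weeks.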

ALOMY [2] = experiment: Pre-emergence herbicidal action against ALOMY; format: in vivo, Alopecurus myosuroides; conditions: pre-emergence
Procedure, shortened: as §1

AMARE [3] = experiment: Pre-emergence herbicidal action against AMARE; format: in vivo, Amaranthus retroflexus
Procedure, shortened: as §1

AVEFA = experiment: Pre-emergence herbicidal action against AVEFA; format: in vivo, Avena fatua; conditions: pre-emergence
Procedure, shortened: as §1

ECHCG [4] = experiment: Pre-emergence herbicidal action against ECHCG; format: in vivo, Echinochloa crus-galli; conditions: 80 g/ha
Procedure, shortened: as §1

LOLRI = experiment: Pre-emergence herbicidal action against LOLRI; format: in vivo, Lolium rigidum; conditions: 80 g/ha
Procedure, shortened: as §1

MATIN [5] = experiment: Pre-emergence herbicidal action against MATIN; format: in vivo, Matricaria inodora
Procedure, shortened: as §1

PHBPU [6] = experiment: Pre-emergence herbicidal action against PHBPU; format: in vivo, Pharbitis purpurea
Procedure, shortened: as §1

POLCO = experiment: Pre-emergence herbicidal action against POLCO; format: in vivo, Polygonum convolvulus; conditions: dosage 80 g/ha
Procedure, shortened: as §1

VERPE [7] = experiment: Pre-emergence herbicidal action against VERPE; format: in vivo, Veronica persica
Procedure, shortened: as §1

VIOTR = experiment: Pre-emergence herbicidal action against VIOTR; format: in vivo, Viola tricolor
Procedure, shortened: as §1

DIGSA [8] = experiment: Pre-emergence herbicidal action against DIGSA; format: in vivo, Digitaria sanguinalis
Procedure, shortened: as §1

ALOMY [9] = experiment: Post-emergence herbicidal action against ALOMY; format: in vivo, Alopecurus myosuroides; conditions: dosage 20 g/ha, visual assessment about 3 weeks after treatment vs untreated controls
Procedure, shortened: (§2)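 Percent herbicidal action is rated by eye about 3 weeks after treatment against untreated controls, where 100% means dead plants and 0% means like controls. Plants in sandy loam are sprayed on green parts at the one-leaf stage with aqueous WP or EC preparations at 600 to 800 l/ha plus 0.2% wetting agent.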

AMARE [10] = experiment: Post-emergence herbicidal action against AMARE; format: in vivo, Amaranthus retroflexus; conditions: 20 g/ha, visual assessment about 3 weeks after treatment, 100% = plants have died, 0% = like control plants
Procedure, shortened: as §2

ECHCG [11] = experiment: Post-emergence herbicidal action against ECHCG; format: in vivo, Echinochloa crus-galli
Procedure, shortened: as §2

MATIN [12] = experiment: Post-emergence herbicidal action against MATIN; format: in vivo, Matricaria inodora
Procedure, shortened: as §2

PHBPU [13] = experiment: Post-emergence herbicidal action against PHBPU; format: in vivo, Pharbitis purpurea
Procedure, shortened: as §2

SETVI [14] = experiment: Post-emergence herbicidal action against SETVI; format: in vivo, Setaria viridis
Procedure, shortened: as §2

VERPE [15] = experiment: Post-emergence herbicidal action against VERPE; format: in vivo, Veronica persica; conditions: 20 g/ha
Procedure, shortened: as §2

DIGSA [16] = experiment: Post-emergence herbicidal action against DIGSA; format: in vivo, Digitaria sanguinalis
Procedure, shortened: as §2

SETVI [17] = experiment: Pre-emergence herbicidal action against SETVI; format: in vivo, Setaria viridis; conditions: Setaria viridis, 504 h
Procedure, shortened: as §1

ABUTH [18] = experiment: Post-emergence herbicidal action against ABUTH; format: in vivo, Abutilon theophrasti; conditions: Abutilon theophrasti, 504 h, dosage 20 g/ha, visual assessment about 3 weeks after treatment vs untreated controls
Procedure, shortened: as §2

[19] = 80 g/ha, scored visually after 3 weeks vs untreated controls (100% = plants have died, 0% = like control plants)
[20] = Tripleurospermum inodorum, 504 h, dosage 20 g/ha

Cc1c(C(=O)Nc2nnnn2C)ccc(C(F)F)c1C(=O)NC(C)C1CC1 (centres unmarked) [Example 1-339]
Pre-emergence action against ABUTH (herbicidal activity) (ABUTH [1]; [19]): 100% | Pre-emergence action against ABUTH (herbicidal activity in percent) (ABUTH [1]; dosage 20 g/ha, scored visually after 3 weeks vs untreated controls, 100% = plants have died, 0% = like control plants): 90% | Pre-emergence action against ALOMY (herbicidal activity) (ALOMY [2]; [19]): 90% | Pre-emergence action against AMARE in % (AMARE [3]; 20 g/ha, scored visually after 3 weeks vs untreated controls, 100% = plants have died, 0% = like control plants): 100% | Pre-emergence action against AMARE in % (AMARE [3]; [19]): 100% | Pre-emergence action against AVEFA in % (AVEFA; 80 g/ha): 100% | Pre-emergence action against ECHCG in % (ECHCG [4]): 100% | Pre-emergence action against LOLRI in % (LOLRI): 100% | Pre-emergence action against MATIN in % (MATIN [5]; dosage 80 g/ha): 100% | Pre-emergence action against PHBPU in % (PHBPU [6]; dosage 20 g/ha): 100% | Pre-emergence action against PHBPU in % (PHBPU [6]; dosage 80 g/ha): 100% | Pre-emergence action against POLCO in % (POLCO): 80% | Pre-emergence action against VERPE in % (VERPE [7]; dosage 20 g/ha): 100% | Pre-emergence action against VERPE in % (VERPE [7]; dosage 80 g/ha): 100% | Pre-emergence action against VIOTR in % (VIOTR; dosage 20 g/ha): 100% | Pre-emergence action against VIOTR in % (VIOTR; dosage 80 g/ha): 100% | Pre-emergence action against DIGSA in % (DIGSA [8]; dosage 20 g/ha): 100% | Pre-emergence action against DIGSA in % (DIGSA [8]; dosage 80 g/ha): 100% | Post-emergence action against ALOMY in % (ALOMY [9]): 80% | Post-emergence action at 20 g/ha against AMARE in % (AMARE [10]): 90% | Post-emergence action against ECHCG in % (ECHCG [11]; dosage 5 g/ha): 90% | Post-emergence action against ECHCG in % (ECHCG [11]; dosage 20 g/ha): 90% | Post-emergence action against MATIN in % (MATIN [12]; dosage 20 g/ha): 80% | Post-emergence action against PHBPU in % (PHBPU [13]; dosage 5 g/ha): 80% | Post-emergence action against PHBPU in % (PHBPU [13]; dosage 20 g/ha): 90% | Post-emergence action against SETVI in % (SETVI [14]; dosage 5 g/ha): 80% | Post-emergence action against SETVI in % (SETVI [14]; dosage 20 g/ha): 90% | Post-emergence action against VERPE in % (VERPE [15]): 90% | Post-emergence action against DIGSA in % (DIGSA [16]; 5 g/ha): 90% | Post-emergence action against DIGSA (DIGSA [16]; 20 g/ha): 90%

CCNC(=O)c1c(I)ccc(C(=O)Nc2nnnn2CC)c1Cl [Example 2-196]
pest or weed control at 80 g/ha (ABUTH [1]; Abutilon theophrasti, 504 h, 80 g/ha, scored visually after 3 weeks vs untreated controls (100% = plants have died, 0% = like control plants)): 100% | pest or weed control at 20 g/ha (ABUTH [1]; Abutilon theophrasti, 504 h, dosage 20 g/ha, scored visually after 3 weeks vs untreated controls, 100% = plants have died, 0% = like control plants, read-out: Pre-emergence action against ABUTH (herbicidal activity in percent)): 100% | pest or weed control at 80 g/ha (ALOMY [2]; Alopecurus myosuroides, 504 h, 80 g/ha, scored visually after 3 weeks vs untreated controls (100% = plants have died, 0% = like control plants)): 100% | pest or weed control at 20 g/ha (ALOMY [2]; Alopecurus myosuroides, 504 h, 20 g/ha, scored visually after 3 weeks, 100% = plants have died, 0% = like control plants): 90% | pest or weed control at 20 g/ha (AMARE [3]; Amaranthus retroflexus, 504 h, 20 g/ha, scored visually after 3 weeks vs untreated controls, 100% = plants have died, 0% = like control plants): 100% | pest or weed control at 80 g/ha (AMARE [3]; Amaranthus retroflexus, 504 h, 80 g/ha, scored visually after 3 weeks vs untreated controls, 100% = plants have died, 0% = like control plants): 100% | pest or weed control at 80 g/ha (AVEFA; Avena fatua, 504 h, 80 g/ha): 100% | pest or weed control at 20 g/ha (AVEFA; Avena fatua, 504 h, 20 g/ha, scored visually after 3 weeks, 100% = plants have died, 0% = like control plants): 80% | pest or weed control at 80 g/ha (LOLRI; Lolium rigidum, 504 h): 100% | pest or weed control at 20 g/ha (MATIN [5]; [20]): 100% | pest or weed control at 80 g/ha (MATIN [5]; Tripleurospermum inodorum, 504 h, dosage 80 g/ha): 100% | pest or weed control at 20 g/ha (PHBPU [6]; Ipomoea purpurea, 504 h, dosage 20 g/ha): 80% | pest or weed control at 80 g/ha (PHBPU [6]; Ipomoea purpurea, 504 h, dosage 80 g/ha): 90% | pest or weed control at 80 g/ha (POLCO; Fallopia convolvulus, 504 h): 90% | pest or weed control at 20 g/ha (SETVI [17]; dosage 20 g/ha): 90% | pest or weed control at 80 g/ha (SETVI [17]; dosage 80 g/ha): 100% | pest or weed control at 80 g/ha (VERPE [7]; Veronica persica, 504 h, dosage 80 g/ha): 80% | pest or weed control at 20 g/ha (VIOTR; Viola tricolor, 504 h, dosage 20 g/ha): 90% | pest or weed control at 80 g/ha (VIOTR; Viola tricolor, 504 h, dosage 80 g/ha): 100% | pest or weed control at 20 g/ha (DIGSA [8]; Digitaria sanguinalis, 504 h, dosage 20 g/ha): 90% | pest or weed control at 80 g/ha (DIGSA [8]; Digitaria sanguinalis, 504 h, dosage 80 g/ha): 100% | pest or weed control at 20 g/ha (ABUTH [18]): 100% | pest or weed control at 20 g/ha (ALOMY [9]; Alopecurus myosuroides, 504 h): 90% | pest or weed control at 20 g/ha (ECHCG [11]; Echinochloa crus-galli, 504 h, dosage 20 g/ha): 80% | pest or weed control at 5 g/ha (MATIN [12]; Tripleurospermum inodorum, 504 h, dosage 5 g/ha): 80% | pest or weed control at 20 g/ha (MATIN [12]; [20]): 90% | pest or weed control at 20 g/ha (SETVI [14]; Setaria viridis, 504 h, dosage 20 g/ha): 100% | pest or weed control at 20 g/ha (VERPE [15]; Veronica persica, 504 h): 80% | pest or weed control at 20 g/ha (DIGSA [16]; Digitaria sanguinalis, 504 h, 20 g/ha): 90%
